Holding throughout (type): cell-based
Data set [1] relates to HEK293T cells. The data set is described as follows: Screening pro-apoptotic toxins: Incucyte confluency over 11 days. On the procedure: Cell engineering and assessment: 5,000 HEK293T cells were plated in a 96-well flat bottom TC treated plate. Cells were transduced same day with 5,000 pg of specified constructs (based on p24 titer). Plates were transferred to the Incucyte where images of the cell layer were captured at 4 images per well every 2 hours over the course of 11 days with 10× objective. Confluency was calculated using the Incucyte basic pipeline software to map phase overlay. Cells were split down to 5,000 cells per well on day 4.
Cells were then lentivirally transduced to express the indicated cell-death inducing toxin.

Data set [2] has as its system HEK293T cell line TL06776 (SB04397). The data set is described as follows: ACP repression of toxins: Incucyte confluency over 7 days. To be noted: BAX expressed in HEK293T cells that do not express the ACP. The method, then: Cell engineering and assessment: 5,000 HEK293T cells were plated in a 96-well flat bottom TC treated plate. Cells were transduced same day with 5,000 pg of specified constructs (based on p24 titer). Plate transferred to the Incucyte where images of the cell layer were captured at 4 images per well every 2 hours over the course of 7 days with 10× objective. Confluency was calculated using the Incucyte basic pipeline software to map phase overlay in each well.
Stable cell lines were generated to express an ACP including a transcriptional repressor. Cells were then lentivirally transduced to express the cell-death inducing toxin BAX or iCasp-9 under control of an ACP responsive promoter. The ACP transcriptional repressor includes a degron that in response to addition of an IMiD promotes ubiquitin pathway-mediated degradation of the peptides. Upon IMiD addition, degradation of the repressor leads to expression of the cell-death inducing peptide (see System 3; degron-tagged transcriptional repressor), as described in Example 1. […]
The cell line TL06776 was assessed following expression of degron domain-ZF-minKrab (SB04397) and percent confluency was quantified from pictures taken every 2 hours over course of 7 days in triplicate. […] Viability was further assessed as the ratio of confluency of a given sample relative to the confluency of non-transduced samples.

Data set [3] has as its system HEK293T cells. The data set is described as follows: Mifepristone-induced dimerization of iCasp9: annexin V / Sytox Red staining by flow cytometry. The conditions noted are these: cells transduced with SB03080, 10 uM Mifepristone, 24 hours. The method, then:
Cell engineering and assessment: 24 hours before transduction 50,000 HEK293T cells were plated on a 24-well dish. Next day, cells were transduced with 50,000 pg of SB03080 (Progesterone receptor domain-Gly-Ser linker-iCasp9-IRES-red fluorescent protein) (based on p24 titer). Transduced cells were split into drug free media or media with 10 uM of Mifepristone 48 hours after transduction. 24 hours later, samples were stained for annexin V, a marker of apoptosis, and Sytox Red a live/dead stain and quantified by flow cytometry.
Cells were lentivirally transduced to express the toxin Caspase-9 with an IRES-red fluorescent protein (mKate) expressed under control of an SFFV promoter. The Caspase-9 protein includes a progesterone receptor domain. Upon Mifepristone addition, monomers of pro-apoptotic Caspase-9 oligomerize through binding of the progesterone receptor domain to Mifepristone (see FIG. 3A and System 1; chemical inducer of dimerization that activates the pro-cell death-inducing protein), as described in Example 1.
(In general: A flow cytometer gives signals particle by particle.)

As to “Bax: cell-death inducing toxin expressed from constructs SB05403 / SB05406”, in the data set with HEK293T cells [1], the “decline in viability of a heterogeneous population” value is recorded as at most 70%. The decline in viability in data set [2] is 70%.

As for `CC#C[C@]1(O)CC[C@H]2[C@@H]3CCC4=CC(=O)CCC4=C3[C@@H](c3ccc(N(C)C)cc3)C[C@@]21C` [Mifepristone], in the data set with HEK293T cells [3], the “cell death (both apoptotic and by live/dead)” value is “increased cell death”.

B1: Smac/Diablo: cell-death inducing toxin expressed from constructs SB05405 / SB05408 (protein)
chain: MAALKSWLSRSVTSFFRYRQCLCVPVVANFKKRCFSELIRPWHKTVTIGFGVTLCAVPIAQKSEPHSLSSEALMRRAVSLVTDSTSTFLSQTTYALIEAITEYTKAVYTLTSLYRQYTSLLGKMNSEEEDEVWQVIIGARAEMTSKHQEYLKLETTWMTAVGLSEMAAEAAYQTGADQASITARNHIQLVKLQVEEVHQLSRKAETKLAEAQIEELRQKTQEEGEERAESEQEAYLRED
modifications: Description of Unknown: Smac/DIABLO sequence
notes: cell-death inducing toxin expressed from constructs SB05405 / SB05408
For B1, the “decline in viability of a heterogeneous population” value in the data set with HEK293T cells [1] is recorded as “did not”.

The values above are taken from patent US20230405144A1, “INDUCIBLE CELL DEATH SYSTEMS” (priority 2020, published 2023).
